Laboratory results: the NIST ThermoML archive (doi:10.1021/je0341918)

Assay: molar heat capacity at constant pressure; xn = mol fraction of the nth substance listed
Settings: 101.3 kPa, Liquid, Small sample (50 mg) DSC

OCCCCO [1,4-butanediol] + O
molar heat capacity at constant pressure [J/K/mol]
Settings | x1 = 0.0218 | x1 = 0.0478 | x1 = 0.0789 | x1 = 0.1175 | x1 = 0.1665 | x1 = 0.2305 | x1 = 0.4441 | x1 = 0.6426 | x1 = 1
293.15 K | 88.5 | 97.3 | 103.9 | 111.8 | 120.1 | 129 | 138.7 | 169.3 | 198.2
303.15 K | 89.3 | 97.7 | 104.8 | 112.7 | 121.3 | 130.4 | 140.8 | 173.3 | 203.6
313.15 K | 88.8 | 98.1 | 105.5 | 113.8 | 122.4 | 131.8 | 142.7 | 177.1 | 208.8
323.15 K | 88.9 | 98.5 | 106.2 | 114.8 | 123.5 | 133.1 | 144.6 | 180.7 | 214
333.15 K | 89.2 | 99.1 | 107.3 | 116 | 125 | 135.1 | 147.3 | 185.7 | 221.3
343.15 K | 89.1 | 99.6 | 108.3 | 117.2 | 126.5 | 137 | 149.9 | 190.8 | 228.6
353.15 K | 89.3 | 100.2 | 109.3 | 118.5 | 128.1 | 139.2 | 152.9 | 196.4 | 236.9
